One compound from the NIST ThermoML archive (doi:10.1016/j.jct.2018.12.002) can be followed below.

SMILES strings stand for the structures. Numbers after ± are expanded uncertainties.

The nature of the data set: molar heat capacity at constant pressure. As to conditions: 1943 K; 101.33 kPa; Liquid; Levitation methods.

Turning to `[Ti]` [titanium], the “molar heat capacity at constant pressure” value is 44.9 ± 4.3 J/K/mol.
